Reference: patent US20040034039A1, “Solid preparations” (priority 2000, published 2004)

Experiment: Contact angle of a water drop on a compression-molded product
Type: physicochemical
Details: purified water drop on 300 mg, 13 mm compression-molded product (1 ton/cm^2), 15 seconds after placing
Protocol: The “water-repellent physiologically active substance” to be used in the present invention is exemplified by a substance difficult to get wet, or having a large contact angle, and the like. A specific example thereof is a physiologically active substance having a contact angle of not less than 40 degrees, preferably not less than 60 degrees, more preferably not less than 80 degrees, as measured by forming a compression-molded product (300 mg) having a diameter of 13 mm with Shimadzu autograph (AG-5000B, manufactured by Shimadzu Corporation) at a load of 1 ton/cm^2, placing one drop of purified water on the surface thereof with a syringe, and determining the contact angles of the water drop at 15 seconds after placing with an automatic contact angle meter (CA-Z, manufactured by Kyowa Interface Science Co., Ltd.), and the like. The contact angle of a representative highly water-repellent substance, magnesium stearate, compound A to be mentioned later: (5-(N-benzyl-N-methylaminomethyl)-1-(2,6-difluorobenzyl)-6-[4-(3-methoxyureido)phenyl]-3-phenylthieno[2,3-d]jpyrimidine-2,4(1H,3H)-dione), and compound B to be mentioned later (3-(N-benzyl-N-methylaminomethyl)-4,7-dihydro-5-isobutyryl-7-(2,6-difluorobenzyl)-2-[4-[(1-hydroxycyclopropyl)carbonylamino]phenyl]-4-oxothieno[2,3-b]pyridine) as measured according to the aforementioned method were about 96 degrees, about 90 degrees and about 88 degrees respectively.

Row | Compound | contact angle
1 | CONC(=O)Nc1ccc(-c2sc3c(c2CN(C)Cc2ccccc2)c(=O)n(-c2ccccc2)c(=O)n3Cc2c(F)cccc2F)cc1 [compound A, 5-(N-benzyl-N-methylaminomethyl)-1-(2,6-difluorobenzyl)-6-[4-(3-methoxyureido)phenyl]-3-phenylthieno[2,3-d]pyrimidine-2,4(1H,3H)-dione] | about 90 degrees
2 | CC(C)C(=O)c1cn(Cc2c(F)cccc2F)c2sc(-c3ccc(NC(=O)C4(O)CC4)cc3)c(CN(C)Cc3ccccc3)c2c1=O [compound B, 3-(N-benzyl-N-methylaminomethyl)-4,7-dihydro-5-isobutyryl-7-(2,6-difluorobenzyl)-2-[4-[(1-hydroxycyclopropyl)carbonylamino]phenyl]-4-oxothieno[2,3-b]pyridine] | about 88 degrees
3 | magnesium stearate [reference compound] | about 96 degrees
